Experimental findings from US20120232058A1, “SUBSTITUTED PYRIDINE DERIVATIVES AND THEIR MEDICAL USE” (NEUROSEARCH A/S, priority 2009, published 2012) are described below.

A word on the EC50: it is the concentration giving half of the maximal effect. High values mean a less potent agent, low ones a more potent agent.

Assay [1] addresses T1, human Kv7.2+3 (Homo sapiens, UniProt O43525+O43526). The assay is described as follows: patch-clamp, HEK293 cell lines stably expressing human Kv7.2+3 channels. Format: cell-based. Set-up: expressed in transfected cells. The note with it: −30 mV, 20 ms, baseline current defined as 100%. An excerpt: The effect obtained by these channel activators is described as a percentage increase in baseline current at a given concentration. The baseline current is defined as 100%, and an increase in current is expressed relative to this, i.e. an increase from 1 nA to 1.2 nA is reported as 120%.
In general terms: In patch-clamp work, channel activity is measured electrically.

Assay [2] addresses T1, human Kv7.2+3. As to the kind of experiment: FLIPR-based thallium influx characterization of Kv7.2+3 modulators. It is filed as cell-based. Set-up: expressed in transfected cells; host or cells: HEK293. The note with it: for EC50: HEK293 cells over-expressing human Kv7.2+3, Tl+ influx, relative to retigabine control responses; for Efficacy: maximal response relative to the reference (retigabine) response. As to the method: This experiment determines the ability of a test compound to modulate the activity of Kv7.2+3 channels heterologously expressed in human HEK293 cells. The ability is determined relative to retigabine. The activity is determined using a standard thallium (I) sensitive assay, e.g. using a fluorometric method in a Fluorescent Image Plate Reader (FLIPR) as described below in more detail.
Full concentration/response curves are generated and EC50 values are calculated based on max values. EC50 values (Effective Concentration) represent the concentration of the test substance, at which 50% of the channel activity is obtained when compared to retigabine control responses. Maximal response determined relative to the reference (retigabine) response is calculated.
Human HEK293 cells over-expressing human Kv7.2+3 are grown in culture medium (DMEM supplemented with 10% foetal bovine serum), in polystyrene culture flasks ([…]) in a humidified atmosphere of 5% CO2 in air, at 37° C. Cell confluence should be 80-90% on day of plating. Cells are rinsed with 4 ml of PBS (phosphate buffered saline) and incubated 2 min with 1 ml of Trypsin-EDTA. After addition of 25 ml of culture medium cells are re-suspended by trituration with a 25 ml pipette.
The cells are seeded at a density of ˜3×10^6 cells/ml (25 μl/well) in black-walled, clear bottom, 384-well plates pre-treated with 0.01 g/I poly-D-lysin (20 μl/well for 30 min). Plated cells were allowed to proliferate for 24 h before loading with dye.
BTC-AM ([…], Invitrogen) is added 25.5 μl DMSO. The BTC-AM stock solution (2 mM) is diluted to a final concentration of 2 μM in Cl^− free assay buffer (in mM: 140 Na^+-gluconate, 2.5 K^+-gluconate, 6 Ca2^+-gluconate, 1 Mg^2+ gluconate, 5 glucose, 10 HEPES, pH 7.3) containing 2 μM ouabain, 2 mM amaranth and 1 mM tartrazine. […]
After the loading period, the TI^+-sensitive BTC fluorescence signal is measured over time using a FLIPR.
• Temperature: Room temp. • First addition: 12 μl test or control compound after 15 sec at a rate of 30 μl/sec and starting height of 20 μl • Second addition: 12 μl stimulus buffer (CI^− free assay buffer supplemented with 1 mM TI2SO4, 5 mM K2SO4 as well as the quenchers amaranth (2 mM) and tartrazine (1 mM)) is added after an additional 3 minutes at a rate of 30 μl/sec and starting height of 30 μl • Reading intervals: First sequence—3 sec×5, 2 sec×24 and 5 sec×25 Second sequence—1 sec×5, 2 sec×24 and 5 sec×36 Addition plates (compound plate and stimulus plate) are placed in positions 2 and 3, respectively. […] Fluorescence obtained after stimulation is corrected for the mean basal fluorescence (in Cl^− free assay buffer). […]

As for `Cc1ccoc1C(=O)Nc1c(C)cc(N2CCCOCC2)nc1C` [Compound 1.2, 3-Methyl-furan-2-carboxylic acid(2,4-dimethyl-6-[1,4]oxazepan-4-yl-pyridin-3-yl)-amide], the “IK (%)” value in assay [1] (conc. 0.3 μM) came to 180%. In addition, in assay [2], the EC50 is 4100 nM and the Efficacy was found to be 102%.

On to `Cc1ccoc1C(=O)Nc1c(C)cc(N2CCCOCC2)nc1C(C)C` [Compound 1.1, 3-Methyl-furan-2-carboxylic acid(2-isopropyl-4-methyl-6-[1,4]oxazepan-4-yl-pyridin-3-yl)-amide], for which, in assay [1] (conc. 0.03 μM), the “IK (%)” value was 177 (n = 2) %. Moreover, the “IK (%)” value in assay [1] (conc. 0.3 μM) stood at 249%. In assay [2], this molecule returned an EC50 of 34 nM and an Efficacy of 82%.
